Reference: patent publication US9532984B2, “Therapeutic combination for cancer treatment” (The Translational Genomics Research Institute, priority 2011, dated 2017)

Experiments:
SW48 KRas Kras WT cells = assay: Cancer cell growth inhibition (cell proliferation), SW48 Kras WT; format: cell-based; conditions: Homo sapiens
Protocol: (§1) The experiments involved a broad testing of multiple concentrations of metformin, phenformin and pioglitazone against fixed concentrations of the autophagy inhibitors. […] Similar tests were carried out in mouse models.

[1] = tested on: SW48 KRas Kras G12V cells; assay: Cancer cell growth inhibition (cell proliferation), SW48 Kras G12V; format: cell-based; conditions: Homo sapiens
Protocol: as §1

[2] = tested on: SW48 KRas Kras G12D cells; assay: Cancer cell growth inhibition (cell proliferation), SW48 Kras G12D; format: cell-based; conditions: Homo sapiens
Protocol: as §1

[3] = tested on: BxPC-3 human pancreatic tumor xenograft
Protocol: BxPC-3 is a human pancreatic cancer cells obtained from the American Type Culture Collection and maintained as recommended. Female mice were inoculated subcutaneously in the right flank with 0.1 ml of a 50% RPMI/50% Matrigel™ (BD Biosciences, Bedford, Mass.) mixture containing a suspension of BxPC-3 human pancreatic tumor cells (approximately 5×10^6 cells/mouse). RPMI, a bicarbonate buffering system, and Matrigel™, a gelatinous protein mixture, support growth of many types of cultured cells including human normal and neoplastic leukocytes.
When tumors reached approximately 135 mg, mice were randomized into treatment groups. Body weights were recorded when the mice were randomized into groups and were weighted twice per week (on Study Days 3 and 7 for each cycle) thereafter in conjunction with tumor measurements. Group 1 mice were treated with vehicle control containing 5% DMA, 10% propylene glycol, 20% PEG 400, and 65% sterile water. Group 2 mice were treated with metformin only. Group 3 mice were treated with autophagy inhibitor in combination with metformin. Treatment began on the day of randomization. Metformin was delivered orally ad libitum in water. The autophagy inhibitor was delivered daily for 12 days in a vehicle of 5% DMA, 10% propylene glycol, 20% PEG 400, and 65% sterile water.

Compound | IC50 (SW48 KRas Kras WT cells; no autophagy inhibitor) [µM] | IC50 (SW48 KRas Kras WT cells; with fixed Mefloquine 1 μM) [µM] | IC50 (SW48 KRas Kras WT cells; with fixed Mefloquine 3 μM) [µM] | IC50 (SW48 KRas Kras WT cells; with fixed Quinicrine 1 μM) [µM] | IC50 (SW48 KRas Kras WT cells; with fixed Quinicrine 3 μM) [µM] | IC50 ([1]; no autophagy inhibitor) [µM] | IC50 ([1]; with fixed Mefloquine 1 μM) [µM] | IC50 ([1]; with fixed Mefloquine 3 μM) [µM] | IC50 ([1]; with fixed Quinicrine 1 μM) [µM] | IC50 ([1]; with fixed Quinicrine 3 μM) [µM] | IC50 ([2]; no autophagy inhibitor) [µM] | IC50 ([2]; with fixed Mefloquine 1 μM) [µM] | IC50 ([2]; with fixed Mefloquine 3 μM) [µM] | IC50 ([2]; with fixed Quinicrine 1 μM) [µM] | IC50 ([2]; with fixed Quinicrine 3 μM) [µM] | further results
CN(C)C(=N)N=C(N)N [Metformin, metformin] | 1000 | < 20 | 600 | 1100 | 4800 | 430 | < 20 | 40 | < 20 | 500 | 1300 | < 20 | 900 | 1100 | > 10000 | IC50 (SW48 KRas Kras WT cells; with fixed Primaquine 1 μM): 100 µM; IC50 (SW48 KRas Kras WT cells; with fixed Primaquine 3 μM): 2600 µM; IC50 ([1]; with fixed Primaquine 1 μM): 80 µM; IC50 ([1]; with fixed Primaquine 3 μM): 320 µM; IC50 ([2]; with fixed Primaquine 1 μM): 100 µM; IC50 ([2]; with fixed Primaquine 3 μM): > 10000 µM; tumor growth ([3]; after day 18, FIG. 1): continued although at a lower rate than that in Group 1 control; tumor growth rate ([3]; day 8 to about day 18, compared among groups, FIG. 1): lowest tumor growth rate; tumor size regressed ([3]; within about one week, after day 18): ~20 % by weight
[H]/N=C(/N)N/C(=N/[H])NCCc1ccccc1 [Phenformin, phenformin] | 7.2 | 17.2 | – | 11 | 15.8 | 16.2 | 1.8 | – | 6.5 | 4.3 | 10.7 | 13 | – | 23.4 | 33.1 | IC50 (SW48 KRas Kras WT cells; with fixed Chloroquine 1 μM): 23.4 µM; IC50 (SW48 KRas Kras WT cells; with fixed Chloroquine 3 μM): 11.7 µM; IC50 ([1]; with fixed Chloroquine 1 μM): 5.8 µM; IC50 ([1]; with fixed Chloroquine 3 μM): 4.5 µM; IC50 ([2]; with fixed Chloroquine 1 μM): 19.5 µM; IC50 ([2]; with fixed Chloroquine 3 μM): 16.2 µM
CCc1ccc(CCOc2ccc(CC3SC(=O)NC3=O)cc2)nc1 (stereo not drawn) [Pioglitizone, pioglitazone] | 154 | – | 8.1 | – | – | > 250 | – | 0.4 | – | – | 183 | – | 9.7 | – | – | –
